The target of this assay is Protein-arginine deiminase type-2 (Homo sapiens) (UniProt Q9Y2J8). In words: PubChem AID 651865. The following applies: recombinant PAD2, BAEE citrulline colorimetric, inactivation kinetics; active compounds read high.
Chain of Protein-arginine deiminase type-2 (Homo sapiens) (Q9Y2J8 whole entry, looked up): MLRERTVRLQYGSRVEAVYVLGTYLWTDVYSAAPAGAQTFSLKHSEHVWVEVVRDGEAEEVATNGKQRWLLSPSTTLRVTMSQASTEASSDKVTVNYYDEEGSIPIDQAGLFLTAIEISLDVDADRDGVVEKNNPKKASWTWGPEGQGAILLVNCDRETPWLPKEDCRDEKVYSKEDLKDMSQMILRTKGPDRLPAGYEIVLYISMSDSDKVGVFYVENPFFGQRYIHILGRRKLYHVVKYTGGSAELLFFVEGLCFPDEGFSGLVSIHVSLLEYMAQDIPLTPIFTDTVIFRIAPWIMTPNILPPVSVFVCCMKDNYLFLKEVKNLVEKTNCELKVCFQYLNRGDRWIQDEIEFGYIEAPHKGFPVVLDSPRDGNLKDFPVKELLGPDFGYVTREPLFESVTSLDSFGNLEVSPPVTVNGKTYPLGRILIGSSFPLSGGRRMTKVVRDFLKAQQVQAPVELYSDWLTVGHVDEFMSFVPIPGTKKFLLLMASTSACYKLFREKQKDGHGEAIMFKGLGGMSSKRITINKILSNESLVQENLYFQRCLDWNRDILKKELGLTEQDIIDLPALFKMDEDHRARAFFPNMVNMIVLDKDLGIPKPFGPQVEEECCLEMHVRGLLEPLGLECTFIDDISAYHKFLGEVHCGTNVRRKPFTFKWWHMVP

For orientation: kinact/KI means the second-order rate constant of inactivation. For the compound `NC1=CC(=O)c2ccc(-c3cccc(C(=O)O)n3)nc2C1=O`, the inactivation efficiency (kinact/KI) was 122 M⁻¹ s⁻¹.
